US20060223756A1, “Endothelial cell specifically binding peptides” (priority 2002, published 2006)

Experiments:
HeLa cells = assay: In vitro transduction analysis (β-galactosidase, X-gal stain) on HeLa; format: cell-based, human
Experimental: (§1) S8 cells are A549 cells stably transfected with adenoviral E1 and E2a genes under separate dexamethasone-inducible promoters (Gorziglia et al., 1996). S8 cells are cultured in IMEM (Biofluids, Rockville, Md.) with 10% heat inactivated fetal bovine serum (HIFBS). For virus production, the cells are cultured with 0.3 uM dexamethasone to induce the expression of E1 and E2a genes. H460 cells are a human non-small cell lung carcinoma (ATCC, Manassas, Va.) and are cultured in RPMI Medium 1640 (Life Technologies, Gaithersburg, Md.) with 10% HIFBS. PC3 cells are a human prostate carcinoma cell line (ATCC) and are cultured in RPMI Medium 1640 with 10% HIFBS. HeLa cells are a human cervical carcinoma cell line (ATCC) and are cultured in DMEM with 10% HIFBS. Primary human endothelial cells, in particular Human Umbilical Vein Endothelial Cells (HUVECs) are obtained from the Clonetics Corporation (Walkerville, Md.: AC-7018). The cells are cultured in the recommended medium.
(§2) The transduction efficiency of Av3nBgPD1 is surveyed using primary human umbilical vein endothelial cells (HUVEC) and on three human carcinoma cell lines including HeLa, PC3, and H460 cells. […] The percentage of transduction is determined by light microscopy by counting the number of positively transduced blue cells per field as described previously (Stevenson, et. al, 1997).

PC3 cells = assay: In vitro transduction analysis (β-galactosidase, X-gal stain) on PC3; format: cell-based, human
Experimental: as §1, §2

[1] = system: primary human umbilical vein endothelial cells (HUVEC); assay: In vitro transduction analysis (β-galactosidase, X-gal stain) on HUVEC; format: cell-based
Experimental: as §1, §2

**Q.** What does the source list for “CPDLHHHMC (Artificial sequence derived from human and animal adenovirus peptide sequences for binding to endothelial cell surface molecules) [PD1]”?
**A.** transduction compared with Av3nBg control, in words (HeLa cells): offered no advantage; transduction compared with Av3nBg control, in words (PC3 cells): offered no advantage; transduction compared with Av3nBg control, in words [1]: enhances transduction
